Measurements reported in patent US12588677B2, “Herbicidal compositions comprising topramezone” (BASF SE, priority 2024, dated 2026).

Experiments:
Format in all cases: in vivo
[1] = tested on: Abutilon theophrasti (ABUTH); test: Post-emergence application in greenhouse trials; conditions: 7 DAT
Protocol: (§1) The culture containers used were plastic pots containing loamy sand with approximately 3.0% of humus as substrate. The seeds of the test plants were sown separately for each species.
(§2) For the post-emergence treatment, the test plants were grown to a plant height as indicated below, depending on the plant habit, and only then treated with the active compounds which had been suspended or emulsified in water. To this end, the test plants were either sown directly, and grown in the same containers, or they were first grown separately as seedlings and transplanted into the test containers a few days prior to treatment.
(§3) Depending on the species, the plants were kept at 10-25° C. and 20-35° C., respectively. The test period extended over 2 to 4 weeks. During this time, the plants were tended and their response to the individual treatments was evaluated.
(§4) Evaluation was carried out using a scale from 0 to 100. 100 means no emergence of the plants, or complete destruction of at least the above-ground parts, and 0 means no damage or normal course of growth. A good herbicidal activity is given at values of at least 70, and very good herbicidal activity is given at values of at least 85.
(§5) Herbicide A-1 and topramezone were, together with addition of 0.5 v/v % MSO (methylated sed oil) as adjuvant, formulated in water as distribution medium (water volume 200 l/ha) and sprayed with commercial flat fan nozzles.
(§6) Herbicide A-1 (342 g/l), topramezone (336 g/l) and DMTA-p (720 g/l) were, together with addition of 0.5 v/v % MSO (methylated sed oil) as adjuvant, formulated in water as distribution medium (water volume 200 l/ha) and sprayed with commercial flat fan nozzles.

[2] = tested on: Amaranthus tamariscinus (AMATA); test: Post-emergence application in greenhouse trials; conditions: growth stage 14, A-1 1 g ai/ha, 7 DAT
Protocol: as §1, §2, §3, §4, §5, §6

Avena fatua (AVEFA) = test: Post-emergence application in greenhouse trials
Protocol: as §1, §2, §3, §4, §5, §6

[3] = tested on: Brachiaria decumbens (BRADC (BRARU)); test: Post-emergence application in greenhouse trials
Protocol: as §1, §2, §3, §4, §5, §6

[4] = tested on: Commelina benghalenis (COMBE); test: Post-emergence application in greenhouse trials
Protocol: as §1, §2, §3, §4, §5, §6

[5] = tested on: Digitaria sanguinalis (DIGSA); test: Post-emergence application in greenhouse trials; conditions: 20 DAT, growth stage 13, 0.25 g ai/ha
Protocol: as §1, §2, §3, §4, §5, §6

Eleusine indica (ELEIN) = test: Post-emergence application in greenhouse trials; conditions: growth stage 13, A-1 1 g ai/ha, 7 DAT
Protocol: as §1, §2, §3, §4, §5, §6

[6] = tested on: Erigeron canadensis (ERICA); test: Post-emergence application in greenhouse trials; conditions: 20 DAT
Protocol: as §1, §2, §3, §4, §5, §6

Glycine max (GLXMA) [7] = test: Post-emergence application in greenhouse trials; conditions: 7 DAT
Protocol: as §1, §2, §3, §4, §5, §6

Kochia scoparia (KCHSC) = test: Post-emergence application in greenhouse trials; conditions: 20 DAT, growth stage 24, 0.25 g ai/ha
Protocol: as §1, §2, §3, §4, §5, §6

Setaria virids (SETVI) = test: Post-emergence application in greenhouse trials
Protocol: as §1, §2, §3, §4, §5, §6

Zea mays (ZEAMX) [8] = test: Post-emergence application in greenhouse trials
Protocol: as §1, §2, §3, §4, §5, §6

[9] = tested on: Abutilon theophrasti (ABUTH); test: Post-emergence application in field trials; conditions: height 10-12 cm
Description: (§7) Post-Emergence Application of Herbicide A-1 (A-1) and Topramezone (B-1) in Field Trials
(§8) Herbicide A-1 (342 g/l) and topramezone (336 g/l) were, together with addition of 0.25 v/v % MSO (methylated sed oil) as adjuvant, formulated in water as distribution medium (water volume 200 l/ha) and sprayed with commercial flat fan nozzles.

[10] = tested on: Digitaria sanguinalis (DIGSA); test: Post-emergence application in field trials; conditions: 21 DAT, height 10-15 cm, 12.5 g ai/ha
Description: as §7, §8

Glycine max (GLXMA) [11] = test: Post-emergence application in field trials; conditions: height 7-11 cm, A-1 18 g ai/ha, 7 DAT
Description: as §7, §8

Hordeum vulgare (HORVX) = test: Post-emergence application in field trials; conditions: height 20-25 cm
Description: as §7, §8

[12] = tested on: Setaria verticillata (SETVE); test: Post-emergence application in field trials; conditions: height 8-16 cm, 12.5 g ai/ha
Description: as §7, §8

Zea mays (ZEAMX) [13] = test: Post-emergence application in field trials; conditions: height 50-60 cm
Description: as §7, §8

[14] = 7 DAT, growth stage 11, 2 g ai/ha
[15] = 20 DAT, growth stage 12, 0.5 g ai/ha
[16] = 20 DAT, growth stage 12, 1 g ai/ha
[17] = 7 DAT, growth stage 11, 120 g ai/ha

CCOC(=O)COc1ccccc1Oc1nc(-n2c(=O)cc(C(F)(F)F)n(C)c2=O)c(F)cc1Cl [A-1, ethyl 2-[2-[[3-chloro-5-fluoro-6-[3-methyl-2,6-dioxo-4-(trifluoromethyl)pyrimidin-1-yl]-2-pyridyl]oxy]phenoxy]acetate]
% herbicidal activity ([1]; growth stage 15, 0.5 g ai/ha): 85% | % herbicidal activity ([1]; ABUTH, growth stage 13, A-1 0.25 g ai/ha): 10% | % herbicidal activity ([1]; ABUTH, growth stage 13, A-1 1 g ai/ha): 50% | % herbicidal activity [2]: 80% | % herbicidal activity (Avena fatua (AVEFA); [14]): 55% | % herbicidal activity (Avena fatua (AVEFA); 21 DAT, growth stage 11, 2 g ai/ha): 30% | % herbicidal activity [3, 14]: 50% | % herbicidal activity ([3]; 20 DAT, growth stage 12, 0.25 g ai/ha): 5% | % herbicidal activity [3, 15]: 15% | % herbicidal activity [3, 16]: 30% | % herbicidal activity ([4]; 20 DAT, growth stage 11, 1 g ai/ha): 5% | % herbicidal activity ([4]; 21 DAT, growth stage 13, 1 g ai/ha): 80% | % herbicidal activity [5]: 5% | % herbicidal activity (Eleusine indica (ELEIN)): 45% | % herbicidal activity ([6]; growth stage 19, 0.5 g ai/ha): 0% | % herbicidal activity ([6]; growth stage 19, 2 g ai/ha): 40% | % herbicidal activity (Glycine max (GLXMA) [7]; growth stage 18, 1 g ai/ha): 90% | % herbicidal activity (Kochia scoparia (KCHSC)): 0% | % herbicidal activity (Setaria virids (SETVI); [15]): 10% | % herbicidal activity (Setaria virids (SETVI); [16]): 15% | % herbicidal activity (Setaria virids (SETVI); SETVI, growth stage 12, A-1 1 g ai/ha, 7 DAT): 15% | % herbicidal activity (Setaria virids (SETVI); SETVI, growth stage 12, A-1 2 g ai/ha, 7 DAT): 25% | % herbicidal activity (Zea mays (ZEAMX) [8]; 7 DAT, growth stage 12, 2 g ai/ha): 60% | % herbicidal activity (Zea mays (ZEAMX) [8]; 21 DAT, growth stage 12, 2 g ai/ha): 40% | % herbicidal activity ([9]; 21 DAT, 18 g ai/ha): 92% | % herbicidal activity ([9]; 42 DAT, 18 g ai/ha): 90% | % herbicidal activity ([9]; ABUTH, A-1 18 g ai/ha, 7 DAT): 90% | % herbicidal activity [10]: 70% | % herbicidal activity (Glycine max (GLXMA) [11]): 93% | % herbicidal activity (Hordeum vulgare (HORVX); 21 DAT, 12.5 g ai/ha): 90% | % herbicidal activity (Hordeum vulgare (HORVX); 21 DAT, 18 g ai/ha): 95% | % herbicidal activity (Hordeum vulgare (HORVX); HORVX, A-1 12.5 g ai/ha, 7 DAT): 70% | % herbicidal activity ([12]; 21 DAT): 45% | % herbicidal activity ([12]; 42 DAT): 30% | % herbicidal activity (Zea mays (ZEAMX) [13]; 21 DAT, 12.5 g ai/ha): 70% | % herbicidal activity (Zea mays (ZEAMX) [13]; 21 DAT, 18 g ai/ha): 75% | % herbicidal activity (Zea mays (ZEAMX) [13]; 28 DAT, 12.5 g ai/ha): 50% | % herbicidal activity (Zea mays (ZEAMX) [13]; 28 DAT, 18 g ai/ha): 60%

COC[C@H](C)N(C(=O)CCl)c1c(C)csc1C [C-23, dimethenamid-p (DMTA-p)]
% herbicidal activity ([1]; growth stage 15, 120 g ai/ha): 0% | % herbicidal activity (Avena fatua (AVEFA); [17]): 0% | % herbicidal activity (Avena fatua (AVEFA); 21 DAT, growth stage 11, 120 g ai/ha): 40% | % herbicidal activity [3, 17]: 10% | % herbicidal activity ([4]; 21 DAT, growth stage 13, 120 g ai/ha): 10% | % herbicidal activity (Glycine max (GLXMA) [7]; growth stage 18, 120 g ai/ha): 0% | % herbicidal activity (Zea mays (ZEAMX) [8]; 7 DAT, growth stage 12, 120 g ai/ha): 0% | % herbicidal activity (Zea mays (ZEAMX) [8]; 21 DAT, growth stage 12, 120 g ai/ha): 0%
